{"source": "patent US20160002291A1", "about": "“Active Agent Prodrugs with Heterocyclic Linkers” (Signature Therapeutics, Inc., priority 2011, published 2016)", "key": {"[1]": {"assay": "Spacer leaving group cyclization release rate in pH 7.4 phosphate buffer (Example 39)", "conditions": "2.18 mM, 50 mM pH 7.4 phosphate buffer, 20° C."}, "[2]": {"assay": "Oral administration of hydrocodone prodrugs co-dosed with Compound 109 to rats (Example 46)", "conditions": "co-dosed PO with KC-40 or KC-50 to rats"}, "[3]": {"assay": "Oral administration of oxycodone prodrugs co-dosed with trypsin inhibitor Compound 109 to rats (Example 40)", "type": "in vivo", "conditions": "co-dosed PO with KC-12 or KC-17 to rats"}, "[4]": {"assay": "Pharmacokinetics following PO administration of Compound KC-55 to rats (Example 48)"}, "trypsin": {"target": "T1, trypsin (Bos taurus, UniProt P00760)", "T1 construct": "purchased Sigma-Aldrich T8003; host or cells: bovine pancreas", "T1 sequence (P00760 24-246)": "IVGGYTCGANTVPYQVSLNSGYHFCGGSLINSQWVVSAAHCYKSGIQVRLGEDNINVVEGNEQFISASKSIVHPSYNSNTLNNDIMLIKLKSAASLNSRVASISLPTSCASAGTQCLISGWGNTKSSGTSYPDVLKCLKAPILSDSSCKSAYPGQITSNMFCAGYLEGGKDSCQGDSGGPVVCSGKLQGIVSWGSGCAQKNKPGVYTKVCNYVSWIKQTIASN", "assay": "In vitro trypsin-mediated cleavage of hydrocodone prodrugs (Example 44)", "type": "biochemical, bovine", "conditions": "conditions as Example 39", "procedure": "The reactions were conducted at 37° C. for 24 h. Samples were collected at specified time points, transferred into 0.5% formic acid in acetonitrile to stop trypsin activity, and stored at less than −70° C. until analysis by LC-MS/MS."}}, "data": [{"molecule": "COc1ccc2c3c1O[C@H]1C(OC(=O)N4CCCCC4CN)=CC[C@@]4(O)[C@@H](C2)N(C)CC[C@]314", "note": "(single isomer, unassigned; peak a) [KC-11 peak A, N-(oxycodone-6-enol-carbonyl)piperidine-2-methylamine]", "values": [{"measurement": "half-life (cyclization; compound disappearance)", "setting": "[1]", "result": "1.30 ± 0.038", "unit": "h"}]}, {"molecule": "COc1ccc2c3c1O[C@H]1C(OC(=O)N4CCCCC4CN)=CC[C@@]4(O)[C@@H](C2)N(C)CC[C@]314", "note": "(single isomer, unassigned; peak b) [KC-11 peak B, N-(oxycodone-6-enol-carbonyl)piperidine-2-methylamine]", "values": [{"measurement": "half-life (cyclization; compound disappearance)", "setting": "[1]", "result": "0.876 ± 0.012", "unit": "h"}]}, {"molecule": "N=C(N)c1ccc2cc(OC(=O)c3ccc(N=C(N)N)cc3)ccc2c1", "note": "[Compound 109, 6-carbamimidoylnaphthalen-2-yl 4-(diaminomethyleneamino)benzoate]", "values": [{"measurement": "effect of trypsin inhibitor on release of hydrocodone", "setting": "[2]", "result": "attenuate release of hydrocodone by prodrugs of the embodiments"}, {"measurement": "effect of trypsin inhibitor on release of oxycodone", "setting": "[3]", "result": "attenuate release of oxycodone by prodrugs of the embodiments"}]}, {"molecule": "COc1ccc2c3c1O[C@H]1C(OC(=O)N4CCC(C(=O)O)CC4CNC(=O)[C@H](CCCNC(=N)N)NC(=O)CNC(C)=O)=CC[C@@]4(O)[C@@H](C2)N(C)CC[C@]314", "note": "(stereo partly drawn) [Compound KC-55, N-(oxycodone-6-enol-carbonyl)-[(2-methylamino)-piperidine-4-carboxylate]-L-arginine-glycine-acetate]", "values": [{"measurement": "release of oxycodone on oral administration", "setting": "[4]; PO to rats", "result": "leads to release of oxycodone"}]}, {"molecule": "COc1ccc2c3c1O[C@H]1C(=O)CC[C@@]4(O)[C@@H](C2)N(C)CC[C@]314", "note": "[Oxycodone, oxycodone, reference compound]", "values": [{"measurement": "Cmax", "setting": "[4]; male, Sprague Dawley, rat, plasma, po, 10 mg/kg", "result": "14.7 ± 6.5", "unit": "ng/mL"}]}, {"molecule": "N-(hydrocodone-6-enol-carbonyl)-(2-methylamino)piperidine-4-carboxylate]-L-arginine-glycine-acetate [Compound KC-40]", "values": [{"measurement": "HC formation rate", "setting": "trypsin", "result": "0.003 ± 0.00", "unit": "μmol/h/BAEE U"}]}]}
